Assays:
[1] = test system: houseflies (Musca domestica); test: Mortality test against houseflies by topical application method (Test Example 1); assay type: in vivo; settings: female adult houseflies, 24 hours, 25° C.
Experimental: Each test compound was accurately weighed and a 1% solution and a 0.1% solution of the sample in acetone were prepared. A 1 μl portion of either of the above solutions was micropipetted onto the thoracic dorsal part of each female adult housefly (Musca domestica) under ether anaesthesia and the fly was released in a high-walled dish together with feed. The dish was covered with a metal-wire net and maintained at 25° C. After 24 hours, the test flies were inspected for deaths and the mortality (%) was calculated. Thirty test flies were used per concentration group.

[2] = test system: green rice leafhoppers (Nephotettix cincticeps); test: Mortality test against green rice leafhoppers by topical application method (Test Example 2); assay type: in vivo; settings: 0.1% solution in acetone, female adults, 24 hours, 25° C.
Experimental: Each test compound was accurately weighed and an 0.1% solution in acetone was prepared. Female adults of green rice leafhopper (Nephotettix cincticeps) were anaesthetized with carbon dioxide gas and 0.5 µl of the above solution was micropipetted onto the thoracic abdominal part of each leafhopper. Then, the test leafhoppers were kept at 25° C. with access to rice plant seedlings. Each group comprised 15 green rice leafhoppers. After 24 hours, the leafhoppers were inspected for deaths and the mortality (%) was calculated for each compound.

[3] = test system: cockroaches (Blattella germanica); test: Mortality test against cockroaches by topical application method (Test Example 3); assay type: in vivo; settings: 1 μl of 1% solution in acetone, female cockroaches, 24 hours, 25° C.
Experimental: Each test compound was accurately weighed and made in a 1% solution in acetone. Then, 1 μl of the above solution was micropipetted onto the abdominal part of each female cockroach (Blattella germanica) under ether anaesthesia. The roaches were released in a high-walled dish together with feed and, after the disk was covered with a metal wire net, same was maintained at 25° C. Fifteen roaches per group were employed. After 24 hours, the test roaches were inspected for deaths and the mortality (%) for each group was calculated.

[4] = Light stability test (Test Example 4); assay type: physicochemical; settings: direct sunlight between glass plates, 12° C., relative to aluminum foil-covered control; for remaining at 4 h: read-out: Residue (%) Exposure time 4 hrs.; for remaining at 8 h: read-out: Residue (%) Exposure time 8 hrs.
Experimental: Into 2.0 ml of acetone were dissolved 80 mg of each test compound. A 5 μl portion of the solution was taken and spread on a glass plate (Micro Standard Cover Glass, 18 m/m No. 1, 200 pcs, Matsunami Glass Ind., Ltd.) and the acetone was evaporated. Then, a similar glass plate was superimposed on the above plate in such a manner that the test liquid was sandwitched. The specimen was exposed to direct sunlight at an atmospheric temperature of 12° C. for a predetermined exposure time. As an unexposed control, a similar specimen was covered with an aluminum foil. The test liquid was washed away with 1.0 ml of methanol containing 0.04% of dioctyl phthalate as an internal reference and high-speed liquid chromatography was carried out on the washings to determine the residual amount of the test compound. The residue (%) was calculated with the value for the aluminum foil-covered control specimen as the standard.

green rice leafhoppers = test: Spray test on rice seedlings against green rice leafhoppers (Utility Example 1); assay type: in vivo, green rice leafhoppers (Nephotettix cincticeps); settings: 30% emulsifiable concentrate (Formulation Example 5) diluted 300-fold, 10 ml/pot, 24 hours
Experimental: To 30 parts of each of Compounds [1], [2], [5] to [13] and [17] to [19] was added 50 parts of xylene and 20 parts of Sorpol SM-200 (a surfactant, trademark of Toho Chemical Co., Ltd.). The mixture was stirred well and dissolved to obtain a 30% emulsifiable concentrate.
The emulsifiable concentrate prepared from Compounds [1], [2], [6], [7], [9], [10], [12] and [13] in Formulation Example 5 were each diluted 300-fold with water. Then, each of the dilutions was sprayed over rice seedlings 25 days after sowing at the rate of 10 ml/pot. The pot was covered with a wire-net and 15 green rice leafhoppers were released under the net. After 24 hours, the leafhoppers were examined for deaths. The mortality (%) was not less than 90% for each of Compounds [1], [2], [6], [7], [9], [10], [12] and [13].

[5] = test system: houseflies (Musca domestica); test: Settling mist mortality test against houseflies, oil preparations of Formulation Example 1 (Utility Example 2); assay type: in vivo; settings: oil preparation with 0.2 part compound and 0.8 part piperonyl butoxide per 100 parts, 24 hours
Experimental: 0.2 part of each of Compounds [1], [2], [5] to [13] and [17] was prepared and 0.8 part of piperonyl butoxide was added to each of them. To this mixture was added a sufficient amount of kerosene to make 100 parts, followed by stirring. By this procedure there was obtained an oil preparation of each Compound.
(§1) By the settling mist method, a mortality test against houseflies (Musca domestica) was carried out using the oil preparations obtained according to Formulation Example 1 from Compounds [1], [2], [5] to [11] to [17]. After 24 hours, the flies were examined for deaths. The mortality (%) was not less than 90% for each of Compounds [1], [2], [5] to [11] to [17].

houseflies = test: Settling mist mortality test against houseflies, oil preparations of Formulation Example 2 (Utility Example 3); assay type: in vivo, houseflies (Musca domestica); settings: oil preparation with 0.1 part compound and 0.1 part resmethrin per 100 parts, 24 hours
Experimental: To 0.1 part of each of Compounds [1] to [17] was added 0.1 part of resmethrin, followed by the addition of a sufficient amount of kerosene to make 100 parts. The mixture was stirred to obtain an oil preparation of each compound.
as §1, with “houseflies” for “houseflies (Musca domestica)”, “preparations made in” for “preparations obtained according to”, “Example 2” for “Example 1”, “[11] and” for “[11] to”

house-flies = test: Settling mist mortality test against houseflies, oil preparations of Formulation Example 3 (Utility Example 4); assay type: in vivo, houseflies (Musca domestica); settings: oil preparation with 0.1 part compound and 0.08 part permethrin per 100 parts, 24 hours
Experimental: To 0.1 part of each of Compounds [1] to [28] was added 0.08 part of permethrin, followed by the addition of a sufficient amount of kerosene to make 100 parts. The mixture was stirred to obtain an oil preparation of each compound.
as §1, with “against house-flies” for “against houseflies (Musca domestica)”, “obtained in” for “obtained according to”, “Example 3” for “Example 1”, “[11] and” for “[11] to”

[6] = Hydrolysis resistance test (Test Example 5); assay type: physicochemical; settings: acetone/water, reflux for 2 days; read-out: Residue (%)
Experimental: Into about 8 ml of acetone were dissolved 100 mg of each test compound and, then, 1.0 g of water was added to this solution to prepare a mixed solution. This mixed solution was refluxed for 2 days. After concentration to about one half of the original volume and with the addition of dioctyl phthalate as an internal reference, the residual amount of the compound was determined by high-speed liquid chromatography. The residue (%) was then calculated.

guppies = test: Fish toxicity test (Test Example 6); assay type: in vivo; settings: female guppies, 48 hours, 25° C.; concentration at which 90% or more were killed
Experimental: To 5 l of water were added 250 mg of sorpol SM-200 (registered trademark, Toho Chemical Co., Ltd.) or Tween-20 (commercial product) as an emulsifier (surfactant) as well as 2.5 ml of an acetone solution containing one of the test compounds in a predetermined concentration. The mixture was stirred well to prepare a test water. Ten female guppies from 3 to 4 months of age were released into the test water and maintained at 25° C. The concentration of the test compound at which 90% or more of the guppies were killed during the ensuring 48 hours was determined. (This concentration is referred to as LC90).

Row | Compound | Mortality (%) 1 μg/fly [1] [%] | Mortality (%) 10 μg/fly [1] [%] | mortality at 0.1 % [2] [%] | mortality at 1 %, 0.01 mg [3] [%] | remaining at 4 h [4] [%] | remaining at 8 h [4] [%] | Mortality (%) (green rice leafhoppers) | Mortality (%) [5] | Mortality (%) (houseflies) | Mortality (%) (house-flies) | remaining at 48 h [6] [%] | LC90 (guppies)
1 | CC(C)C(C=C(Cl)Cl)C(=O)OC(C#N)c1cccc(Oc2ccccc2)c1 (stereo not drawn) [Compound [1], α-Cyano-3-phenoxybenzyl α-(2,2-dichlorovinyl)isovalerate] | 100 | 100 | ≥ 90 | 100 | 93 | 90 | not less than 90% | not less than 90% | not less than 90% | not less than 90% | – | –
2 | C#CC(OC(=O)C(C=C(Cl)Cl)C(C)C)c1cccc(Oc2ccccc2)c1 (stereo not drawn) [[2], α-Ethynyl-3-phenoxybenzyl α-(2,2-dichlorovinyl)isovalerate] | 100 | 100 | – | 80 | 97 | 100 | not less than 90% | not less than 90% | not less than 90% | not less than 90% | > 90 | Not less than 10 ppm

Source: patent US4409238A, “Insecticides and insecticidal compositions” (Kuraray Co., Ltd., priority 1977, dated 1983)
